Measured values reported in patent US11141411B2, “Methods of treating neurological, metabolic, and other disorders using enantiopure deuterium-enriched pioglitazone” (Poxel SA, priority 2014, dated 2021).

How the values were obtained:
db/db mice = test: db/db mouse model of type II diabetes, 10-day daily oral dosing; assay type: in vivo; conditions: daily oral gavage 10 days, h-rac-pio 30 mg/kg, vs. vehicle; for decrease of inflammatory biomarker IL-6 / decrease of inflammatory biomarker TNF-α: d-R-pio 20 mg/kg; for adiponectin: d-S-pio 20 mg/kg
Description: Body weights were measured throughout the study. Non-fasting blood glucose (10 μL by tail snip) was measured 4 hours prior to first dose, and animals were sorted and assigned to groups based on this measure. […] A terminal blood sample was collected for determination of serum levels of cholesterol, triglycerides, free fatty acids, adiponectin, serum amyloid A, and cytokines IL-6, TNF-α, and MCP-1, using standard analytical methods. Quantitative results were analyzed by statistical methods using, as appropriate, one- or two-way ANOVA or Kruskal-Wallis tests for differences followed by Sidak's, Dunnett's, or Dunn's post-test to determine differences vs. vehicle-treated control animals. All graphs were generated with GraphPad Prism version 6.0.2 (GraphPad Software, Inc., La Jolla, Calif.).

[1] = Body weight gain in male C57BL/6J mice on a standard diet; assay type: in vivo, mouse; conditions: twice daily oral gavage 11 days, overall daily dose h-rac-pio 30 mg/kg, d-S-pio 15 mg/kg, d-R-pio 15 mg/kg, vs. vehicle
Description: Male C57BL/6J mice (about 28 g body weight) were acclimated singly-housed for one week to a reverse light/dark cycle with free access to water and standard maintenance diet. Animals were then handled daily for one week followed by another 7 days of twice daily dosing with vehicle (0.5% methylcellulose in water) by oral gavage. […] Body weights were measured twice daily, prior to each dosing, to adjust individual dosing volumes to actual body weights.

[2] = Pharmacokinetics in male C57BL/6 mice, oral gavage once a day for 5 days; conditions: day 5, d-S-pio or d-R-pio 15 mg/kg oral gavage daily; for t1/2 d-S: elimination half-life of analyte d-S-pio; for t1/2 h-R: elimination half-life of analyte h-R-pio; for t1/2 h-R / t1/2 h-S: h-rac-pio 30 mg/kg; for t1/2 h-S: elimination half-life of analyte h-S-pio
Description: Animals were then euthanized. Plasma was separated by centrifugation and stored at −80° C. until analyzed.
Concentrations were calculated by interpolation on standard curves generated from mouse plasma samples spiked with known concentrations of the pure analytes.

| SMILES | decrease of inflammatory biomarker IL-6 (db/db mice) | decrease of inflammatory biomarker TNF-α (db/db mice) | percent body weight difference versus day 1 body weight [1] | t1/2 d-S [2] | t1/2 h-R [2] | t1/2 h-S [2] | adiponectin (db/db mice) | insulin (db/db mice) |
| --- | --- | --- | --- | --- | --- | --- | --- | --- |
| [2H][C@]1(Cc2ccc(OCCc3ccc(CC)cn3)cc2)SC(=O)NC1=O [d-R-pio, (R)-5-({p-[2-(5-ethyl-2-pyridyl)ethoxy]phenyl}methyl)-(5-^2H)-1,3-thiazolidine-2,4-dione] | trending | trending | did not increase percent body weight difference over vehicle | 0.8 h | 2.5 h | 2.5 h |  |  |
| CCc1ccc(CCOc2ccc(CC3SC(=O)NC3=O)cc2)nc1 (racemic) [h-rac-pio, rac-5-({p-[2-(5-Ethyl-2-pyridyl)ethoxy]phenyl}methyl)-1,3-thiazolidine-2,4-dione] | trending | trending | statistically significant increase in percent body weight difference compared to dosing with vehicle |  |  |  | significantly increased adiponectin | significantly decreased insulin |
| [2H][C@@]1(Cc2ccc(OCCc3ccc(CC)cn3)cc2)SC(=O)NC1=O [d-S-pio, (S)-5-({p-[2-(5-Ethyl-2-pyridyl)ethoxy]phenyl}methyl)-(5-^2H)-1,3-thiazolidine-2,4-dione] |  |  | statistically significant increase in percent body weight difference compared to dosing with vehicle | 2.3 h | 3.2 h | 3.1 h | significantly increased adiponectin |  |
